# The supplement of paper PMC11208160
# Experiment: recombinant barcode read abundance after kanamycin selection (control-corrected) (log10(CPM+1)); higher = more efficient recombination; sequences stand for … in AGTGCAGAGAAAATCGGCCAGTTTTCTCTGCCTGCAGTCCGCATGCCGT…AGATTTATGCAGCGGACTGCCTTTCTCCCAAAGTGATAAACCGGACAGTATCATGGACCGGTTTTCCCGGTAATCCGTATTTGCAAGGTTGGTTTCACT; site = the 11-nt target
# Summary of the method: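 IS621 bridge RNA target-binding loops were paired with targets in a pooled library tested in E. coli. After co-electroporation with a donor plasmid, cells were plated in two replicates on chloramphenicol/ampicillin LB agar (control) and on chloramphenicol/ampicillin/kanamycin carrying 0.1 mM IPTG. Barcodes at recombinant junctions were counted as counts per million, averaged and control-corrected to give recombination efficiency. Values are log10(CPM+1).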
# 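Also: IS621 recombinase and bridge RNA in Escherichia coli cells.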
row,Sequence,recombinant barcode read abundance (log10)
1,GCCGCGCCTTGGGTTCTAACCTGTTGCAG (site GCCCCGCCTCT),0.271
2,GCCGCGCCTTGGGTTCTAACCTGTTGCAG (site GCCGCGCCTCT),0.116
3,GCCGCGCCTTGGGTTCTAACCTGTTGCAG (site GCCTCGCCTCT),0.13
4,GCCGCTCCTTGGGTTCTAACCTGTTGCCT (site GCCGCTCCTAG),0.163
5,GCCGCTCCTTGGGTTCTAACCTGTTGCCT (site GCGGTTCCTAG),0.098
6,GCCTATGCTTGGGTTCTAACCTGTTGCCT (site GACTATGCTAG),0.115
7,GCCTATGCTTGGGTTCTAACCTGTTGCCT (site GCCTATGCTAG),0.852
8,GCCTATGCTTGGGTTCTAACCTGTTGCCT (site GGCTATGCTAG),0.0448
9,GCCTATGCTTGGGTTCTAACCTGTTGCCT (site GTCTATGCTAG),0.0718
10,GCCTCTTCTTGGGTTCTAACCTGTTGCCT (site GCCTCTTCTAG),0.426
11,GCCTCTTCTTGGGTTCTAACCTGTTGCCT (site GTCTCTACTAG),0.0556
12,GCCTGGTCTTGGGTTCTAACCTGTTGCCT (site GCCTGGTCTAG),1.01
13,GCCTGGTCTTGGGTTCTAACCTGTTGCCT (site TCCTCGTCTAG),0.122
14,GCGACGCCTTGGGTTCTAACCTGTTGCCT (site ACGAAGCCTAG),0.0187
15,GCGACGCCTTGGGTTCTAACCTGTTGCCT (site GCGACGCCTAG),1.26
16,GCGACTCCTTGGGTTCTAACCTGTTGCCT (site GCGACTCCTAA),0.215
17,GCGACTCCTTGGGTTCTAACCTGTTGCCT (site GCGACTCCTAG),0.699
18,GCGATCCCTTGGGTTCTAACCTGTTGCTT (site CATGAGACTCC),0.0103
19,GCGATCCCTTGGGTTCTAACCTGTTGCTT (site GCGATCCCTAA),0.798
20,GCGCACCCTTGGGTTCTAACCTGTTGCAG (site CTGCACCCTCT),0.0518
21,GCGCACCCTTGGGTTCTAACCTGTTGCAG (site GCGCACCCTCT),1.15
22,GCGCATGCTTGGGTTCTAACCTGTTGCCT (site GCGCATGCTAG),0.788

row,Sequence,recombinant barcode read abundance (log10)
1,GCGCATGCTTGGGTTCTAACCTGTTGCCT (site GTGCCTGCTAG),0.41
2,GCGCCCTCTTGGGTTCTAACCTGTTGCCT (site ACGCCCTCTAG),0.0862
3,GCGCCCTCTTGGGTTCTAACCTGTTGCCT (site GCGCCCTCTAG),0.7
4,GCGCGAACTTGGGTTCTAACCTGTTGCCT (site GCACGAACTAG),0.733
5,GCGCGAACTTGGGTTCTAACCTGTTGCCT (site GCCCGAACTAG),0.047
6,GCGCGAACTTGGGTTCTAACCTGTTGCCT (site GCGCGAACTAG),0.608
7,GCGCGAACTTGGGTTCTAACCTGTTGCCT (site GCTCGAACTAG),0.125
8,GCGGAATCTTGGGTTCTAACCTGTTGCCT (site GCGGAATCTAG),1.28
9,GCGGAATCTTGGGTTCTAACCTGTTGCCT (site TCGGAATCTAG),0.469
10,GCGGACGCTTGGGTTCTAACCTGTTGCCT (site CCGGACCCTAG),0.0428
11,GCGGACGCTTGGGTTCTAACCTGTTGCCT (site GCGGACGCTAG),1.72
12,GCGGGTCCTTGGGTTCTAACCTGTTGCGT (site GCGGGTCCTAC),2.98
13,GCGGGTCCTTGGGTTCTAACCTGTTGCGT (site GCTGCTCCTAC),0.0517
14,GCGGTTCCTTGGGTTCTAACCTGTTGCCT (site GCCGCTCCTAG),0.139
15,GCGGTTCCTTGGGTTCTAACCTGTTGCCT (site GCGGTTCCTAG),1.96
16,GCGTATCCTTGGGTTCTAACCTGTTGCCT (site GCGAATCCTAG),0.127
17,GCGTATCCTTGGGTTCTAACCTGTTGCCT (site GCGCATCCTAG),0.0623
18,GCGTATCCTTGGGTTCTAACCTGTTGCCT (site GCGGATCCTAG),0.23
19,GCGTATCCTTGGGTTCTAACCTGTTGCCT (site GCGTATCCTAG),0.93
20,GCGTCGTCTTGGGTTCTAACCTGTTGCCT (site GCATCGTCTAG),0.134
21,GCGTCGTCTTGGGTTCTAACCTGTTGCCT (site GCCTCGTCTAG),0.193
22,GCGTCGTCTTGGGTTCTAACCTGTTGCCT (site GCGTCGTCTAG),0.0822

row,Sequence,recombinant barcode read abundance (log10)
1,GCGTCGTCTTGGGTTCTAACCTGTTGCCT (site GCTTCGTCTAG),0.229
2,GCGTCTCCTTGGGTTCTAACCTGTTGCAT (site GCGACTCCTAT),0.209
3,GCGTCTCCTTGGGTTCTAACCTGTTGCAT (site GCGCCTCCTAT),0.012
4,GCGTCTCCTTGGGTTCTAACCTGTTGCAT (site GCGGCTCCTAT),0.0731
5,GCGTCTCCTTGGGTTCTAACCTGTTGCAT (site GCGTCTCCTAT),0.335
6,GCGTTTGCTTGGGTTCTAACCTGTTGCCT (site GAGTTTGCTAG),0.106
7,GCGTTTGCTTGGGTTCTAACCTGTTGCCT (site GCGTTTGCTAG),1.01
8,GCGTTTGCTTGGGTTCTAACCTGTTGCCT (site GGGTTTGCTAG),0.0501
9,GCGTTTGCTTGGGTTCTAACCTGTTGCCT (site GTGTTTGCTAG),0
10,GCTAACACTTGGGTTCTAACCTGTTGCCT (site ACTAACACTAG),0.2
11,GCTAACACTTGGGTTCTAACCTGTTGCCT (site CCTAACACTAG),0.153
12,GCTAACACTTGGGTTCTAACCTGTTGCCT (site GCTAACACTAG),1.37
13,GCTAACACTTGGGTTCTAACCTGTTGCCT (site TCTAACACTAG),0.075
14,GCTAACCCTTGGGTTCTAACCTGTTGCGT (site GCGAACCCTCC),0
15,GCTAACCCTTGGGTTCTAACCTGTTGCGT (site GCTAACCCTAC),3.05
16,GCTAGGACTTGGGTTCTAACCTGTTGCTG (site CGGTCTGCTAT),0.163
17,GCTAGGACTTGGGTTCTAACCTGTTGCTG (site GCTAGGACTCA),2.12
18,GCTCAACCTTGGGTTCTAACCTGTTGCCT (site GATCAACCTAG),0.796
19,GCTCAACCTTGGGTTCTAACCTGTTGCCT (site GCTCAACCTAG),1.6
20,GCTCAACCTTGGGTTCTAACCTGTTGCCT (site GGTCAACCTAG),0.176
21,GCTCAACCTTGGGTTCTAACCTGTTGCCT (site GTTCAACCTAG),0.126
22,GCTCACTCTTGGGTTCTAACCTGTTGCTT (site GCTCACTCTAA),1.63

row,Sequence,recombinant barcode read abundance (log10)
1,GCTCACTCTTGGGTTCTAACCTGTTGCTT (site GTTCCCTCTAA),0.0084
2,GCTCAGCCTTGGGTTCTAACCTGTTGCCT (site GCTCAGACTAG),0.0954
3,GCTCAGCCTTGGGTTCTAACCTGTTGCCT (site GCTCAGCCTAG),1.14
4,GCTCAGCCTTGGGTTCTAACCTGTTGCCT (site GCTCAGGCTAG),0.16
5,GCTCAGCCTTGGGTTCTAACCTGTTGCCT (site GCTCAGTCTAG),0.072
6,GCTCCGTCTTGGGTTCTAACCTGTTGCTT (site ACTCCGTCTTA),0.047
7,GCTCCGTCTTGGGTTCTAACCTGTTGCTT (site GCTCCGTCTAA),0.644
8,GCTCGACCTTGGGTTCTAACCTGTTGCTG (site CGCTCCTCTAT),0.18
9,GCTCGACCTTGGGTTCTAACCTGTTGCTG (site GCTCGACCTCA),1.68
10,GCTCGTACTTGGGTTCTAACCTGTTGCAT (site GCTCGTACTAT),1.47
11,GCTCGTACTTGGGTTCTAACCTGTTGCAT (site TCGCGTACTAT),0.0401
12,GCTGAGACTTGGGTTCTAACCTGTTGCCG (site GATGAGACTCG),0.218
13,GCTGAGACTTGGGTTCTAACCTGTTGCCG (site GCTGAGACTCG),2.53
14,GCTGGACCTTGGGTTCTAACCTGTTGCAT (site GCTCGTCCTAT),0.0463
15,GCTGGACCTTGGGTTCTAACCTGTTGCAT (site GCTGGACCTAT),2.18
16,GCTGGCCCTTGGGTTCTAACCTGTTGCCT (site GATGGCCCTAG),0.0865
17,GCTGGCCCTTGGGTTCTAACCTGTTGCCT (site GCTGGCCCTAG),1.18
18,GCTGGCCCTTGGGTTCTAACCTGTTGCCT (site GGTGGCCCTAG),0.0479
19,GCTGGCCCTTGGGTTCTAACCTGTTGCCT (site GTTGGCCCTAG),0.481
20,GCTGGTCCTTGGGTTCTAACCTGTTGCCT (site GCAGGTCCTAG),0.311
